# Assay results: publication PMC8288134, “Synthesis, potential antitumor activity, cell cycle analysis, and multitarget mechanisms of novel hydrazones incorporating a 4-methylsulfonylbenzene scaffold: a molecular docking study” (Journal of Enzyme Inhibition and Medicinal Chemistry, 2021)
# Read-outs that look alike come from different tables or passages of the source.
# Key:
# MDA-MB-231/ATCC = assay: NCI antitumor screen (SRB); assay type: cell-based; conditions: Homo sapiens, one dose 10 µM, read-out: Growth inhibition percentage (GI%)
# UACC-257 [1] = assay: NCI antitumor screen (SRB); assay type: cell-based, human; conditions: Homo sapiens; UACC-257; one dose 10 µM; read-out: Growth inhibition percentage (GI%)
# NCI-H226 = assay: NCI antitumor screen (SRB); assay type: cell-based; conditions: Homo sapiens, one dose 10 µM, read-out: Growth inhibition percentage (GI%)
# EKVX [2] = assay: NCI antitumor screen (SRB); assay type: cell-based; conditions: Homo sapiens, one dose 10 µM, read-out: Growth inhibition percentage (GI%)
# COLO 205 = assay: NCI antitumor screen (SRB); assay type: cell-based; conditions: Homo sapiens, one dose 10 µM, read-out: Growth inhibition percentage (GI%)
# PRMI-8226 = assay: NCI antitumor screen (SRB); assay type: cell-based; conditions: Homo sapiens, one dose 10 µM, read-out: Growth inhibition percentage (GI%)
# SK-MEL-5 = assay: NCI antitumor screen (SRB); assay type: cell-based, human; conditions: Homo sapiens; SK-MEL-5; one dose 10 µM; read-out: Growth inhibition percentage (GI%)
# A549/ATCC = assay: NCI antitumor screen (SRB); assay type: cell-based; conditions: Homo sapiens, one dose 10 µM, read-out: Growth inhibition percentage (GI%)
# LOX IMVI = assay: NCI antitumor screen (SRB); assay type: cell-based; conditions: Homo sapiens, one dose 10 µM, read-out: Growth inhibition percentage (GI%)
# NCI-H23 = assay: NCI antitumor screen (SRB); assay type: cell-based; conditions: Homo sapiens, one dose 10 µM, read-out: Growth inhibition percentage (GI%)
# ACHN = assay: NCI antitumor screen (SRB); assay type: cell-based; conditions: Homo sapiens, one dose 10 µM, read-out: Growth inhibition percentage (GI%)
# SK-MEL-2 [3] = assay: NCI antitumor screen (SRB); assay type: cell-based; conditions: Homo sapiens
# A498 = assay: NCI antitumor screen (SRB); assay type: cell-based; conditions: Homo sapiens, one dose 10 µM, read-out: Growth inhibition percentage (GI%)
# NCI-H460 = assay: NCI antitumor screen (SRB); assay type: cell-based; conditions: Homo sapiens, one dose 10 µM, read-out: Growth inhibition percentage (GI%)
# M14 [4] = assay: NCI antitumor screen (SRB); assay type: cell-based; conditions: Homo sapiens, one dose 10 µM, read-out: Growth inhibition percentage (GI%)
# SR [5] = assay: NCI antitumor screen (SRB); assay type: cell-based; conditions: Homo sapiens, one dose 10 µM, read-out: Growth inhibition percentage (GI%)
# MOLT-4 [6] = assay: NCI antitumor screen (SRB); assay type: cell-based; conditions: Homo sapiens, one dose 10 µM, read-out: Growth inhibition percentage (GI%)
# NCI-H522 = assay: NCI antitumor screen (SRB); assay type: cell-based; conditions: Homo sapiens
# [7] = test system: NSC lung cancer tumour cell lines; conditions: cited from earlier work; for CC50: read-out: LC50 (subpanel average), reference drugs, ref https://dtp.cancer.gov/dtpstandard/dwindex/index.jsp; for TGI (subpanel average): reference drugs, ref https://dtp.cancer.gov/dtpstandard/dwindex/index.jsp
# [8] = test system: colon cancer tumour cell lines; conditions: cited from earlier work; for GI50: read-out: GI50 (subpanel average), reference drugs, ref https://dtp.cancer.gov/dtpstandard/dwindex/index.jsp; for CC50: read-out: LC50 (subpanel average), reference drugs, ref https://dtp.cancer.gov/dtpstandard/dwindex/index.jsp; for TGI (subpanel average): reference drugs, ref https://dtp.cancer.gov/dtpstandard/dwindex/index.jsp
# [9] = test system: renal cancer tumour cell lines; conditions: cited from earlier work; for GI50: read-out: GI50 (subpanel average), reference drugs, ref https://dtp.cancer.gov/dtpstandard/dwindex/index.jsp; for CC50: read-out: LC50 (subpanel average), reference drugs, ref https://dtp.cancer.gov/dtpstandard/dwindex/index.jsp; for TGI (subpanel average): reference drugs, ref https://dtp.cancer.gov/dtpstandard/dwindex/index.jsp
# [10] = test system: CNS cancer tumour cell lines; conditions: cited from earlier work; for GI50: read-out: GI50 (subpanel average), reference drugs, ref https://dtp.cancer.gov/dtpstandard/dwindex/index.jsp; for CC50: read-out: LC50 (subpanel average), reference drugs, ref https://dtp.cancer.gov/dtpstandard/dwindex/index.jsp; for TGI (subpanel average): reference drugs, ref https://dtp.cancer.gov/dtpstandard/dwindex/index.jsp
# BT-549 = test system: BT-549; parameters: method as in https://dtp.cancer.gov/dtpstandard/dwindex/index.jsp; conditions: reference drugs, ref https://dtp.cancer.gov/dtpstandard/dwindex/index.jsp; cited from earlier work
# HOP-62 = test system: HOP-62; parameters: method as in https://dtp.cancer.gov/dtpstandard/dwindex/index.jsp; conditions: reference drugs, ref https://dtp.cancer.gov/dtpstandard/dwindex/index.jsp; cited from earlier work
# HT29 = test system: HT29; parameters: method as in https://dtp.cancer.gov/dtpstandard/dwindex/index.jsp; conditions: reference drugs, ref https://dtp.cancer.gov/dtpstandard/dwindex/index.jsp; cited from earlier work
# EKVX [11] = test system: EKVX; parameters: method as in https://dtp.cancer.gov/dtpstandard/dwindex/index.jsp; conditions: reference drugs, ref https://dtp.cancer.gov/dtpstandard/dwindex/index.jsp; cited from earlier work
# SR [12] = test system: SR; parameters: method as in https://dtp.cancer.gov/dtpstandard/dwindex/index.jsp; conditions: reference drugs, ref https://dtp.cancer.gov/dtpstandard/dwindex/index.jsp; cited from earlier work
# MOLT-4 [13] = test system: MOLT-4; parameters: method as in https://dtp.cancer.gov/dtpstandard/dwindex/index.jsp; conditions: reference drugs, ref https://dtp.cancer.gov/dtpstandard/dwindex/index.jsp; cited from earlier work
# HCT-15 = test system: HCT-15; parameters: method as in https://dtp.cancer.gov/dtpstandard/dwindex/index.jsp; conditions: reference drugs, ref https://dtp.cancer.gov/dtpstandard/dwindex/index.jsp; cited from earlier work
# UACC-257 [14] = test system: UACC-257; parameters: method as in https://dtp.cancer.gov/dtpstandard/dwindex/index.jsp; conditions: reference drugs, ref https://dtp.cancer.gov/dtpstandard/dwindex/index.jsp; cited from earlier work
# NCI-H322M = test system: NCI-H322M; parameters: method as in https://dtp.cancer.gov/dtpstandard/dwindex/index.jsp; conditions: reference drugs, ref https://dtp.cancer.gov/dtpstandard/dwindex/index.jsp; cited from earlier work
# SK-MEL-2 [15] = test system: SK-MEL-2; parameters: method as in https://dtp.cancer.gov/dtpstandard/dwindex/index.jsp; conditions: reference drugs, ref https://dtp.cancer.gov/dtpstandard/dwindex/index.jsp; cited from earlier work
# SNB-75 = test system: SNB-75; parameters: method as in https://dtp.cancer.gov/dtpstandard/dwindex/index.jsp; conditions: reference drugs, ref https://dtp.cancer.gov/dtpstandard/dwindex/index.jsp; cited from earlier work
# SK-OV-3 = test system: SK-OV-3; parameters: method as in https://dtp.cancer.gov/dtpstandard/dwindex/index.jsp; conditions: reference drugs, ref https://dtp.cancer.gov/dtpstandard/dwindex/index.jsp; cited from earlier work
# DU-145 = test system: DU-145; parameters: method as in https://dtp.cancer.gov/dtpstandard/dwindex/index.jsp; conditions: reference drugs, ref https://dtp.cancer.gov/dtpstandard/dwindex/index.jsp; cited from earlier work
# U251 = test system: U251; parameters: method as in https://dtp.cancer.gov/dtpstandard/dwindex/index.jsp; conditions: reference drugs, ref https://dtp.cancer.gov/dtpstandard/dwindex/index.jsp; cited from earlier work
# M14 [16] = test system: M14; parameters: method as in https://dtp.cancer.gov/dtpstandard/dwindex/index.jsp; conditions: reference drugs, ref https://dtp.cancer.gov/dtpstandard/dwindex/index.jsp; cited from earlier work
# SN12C = test system: SN12C; parameters: method as in https://dtp.cancer.gov/dtpstandard/dwindex/index.jsp; conditions: reference drugs, ref https://dtp.cancer.gov/dtpstandard/dwindex/index.jsp; cited from earlier work
smiles,measurement,setting,value
"Cc1ccc(C=NNC(=O)c2ccc(S(C)(=O)=O)cc2)cc1 [Compound 9, N'-(4-Methylbenzylidene)-4-(methylsulfonyl)benzohydrazide]",inhibition at 10 µM,MDA-MB-231/ATCC,< 10%
same,inhibition at 10 µM,UACC-257 [1],28.4%
same,inhibition at 10 µM,NCI-H226,< 10%
same,inhibition at 10 µM,EKVX [2],< 10%
same,inhibition at 10 µM,COLO 205,< 10%
same,inhibition at 10 µM,PRMI-8226,< 10%
same,inhibition at 10 µM,SK-MEL-5,13.5%
same,inhibition at 10 µM,A549/ATCC,12.7%
same,inhibition at 10 µM,LOX IMVI,< 10%
same,inhibition at 10 µM,NCI-H23,< 10%
same,inhibition at 10 µM,ACHN,< 10%
same,inhibition at 10 µM,"SK-MEL-2 [3]; SK-MEL-2, read-out: Growth inhibition percentage (GI%)",19.8%
same,inhibition at 10 µM,A498,17.9%
same,inhibition at 10 µM,NCI-H460,< 10%
same,inhibition at 10 µM,M14 [4],< 10%
same,inhibition at 10 µM,SR [5],43.8%
same,inhibition at 10 µM,MOLT-4 [6],22.6%
same,inhibition at 10 µM,"NCI-H522; NCI-H522, read-out: Growth inhibition percentage (GI%)",53.9%
"O=c1[nH]cc(F)c(=O)[nH]1 [Compound 5-Fu, 5-fluorouracil, reference compound]",inhibition at 10 µM,MDA-MB-231/ATCC,21.9%
same,inhibition at 10 µM,UACC-257 [1],80.5%
same,inhibition at 10 µM,NCI-H226,30.5%
same,inhibition at 10 µM,EKVX [2],41.6%
same,inhibition at 10 µM,COLO 205,59.8%
same,inhibition at 10 µM,PRMI-8226,58.6%
same,inhibition at 10 µM,SK-MEL-5,66.3%
same,GI50,"[7]; read-out: GI50 (subpanel average), reference drugs, ref https://dtp.cancer.gov/dtpstandard/dwindex/index.jsp",13.6 µM
same,CC50,[7],> 100 µM
same,TGI (subpanel average),[7],80.45 µM
same,GI50,[8],0.27 µM
same,CC50,[8],89.3 µM
same,TGI (subpanel average),[8],51.41 µM
same,inhibition at 10 µM,A549/ATCC,65.8%
same,inhibition at 10 µM,LOX IMVI,69.6%
same,inhibition at 10 µM,NCI-H23,61%
same,inhibition at 10 µM,ACHN,60.7%
same,GI50,[9],0.93 µM
same,CC50,[9],> 100 µM
same,TGI (subpanel average),[9],46.25 µM
same,inhibition at 10 µM,"SK-MEL-2 [3]; SK-MEL-2, one dose 10 µM, read-out: Growth inhibition percentage (GI%)",< 10%
same,inhibition at 10 µM,A498,> 100%
same,inhibition at 10 µM,NCI-H460,87%
same,inhibition at 10 µM,SR [5],75.2%
same,GI50,[10],14.4 µM
same,CC50,[10],> 100 µM
same,TGI (subpanel average),[10],73.70 µM
same,inhibition at 10 µM,MOLT-4 [6],56.9%
same,inhibition at 10 µM,"NCI-H522; NCI-H522, one dose 10 µM, read-out: Growth inhibition percentage (GI%)",42%
"CNC(=O)c1cc(Oc2ccc(NC(=O)Nc3ccc(Cl)c(C(F)(F)F)c3)cc2)ccn1 [Sorafenib, sorafenib]",GI50,BT-549,3.16 µM
same,GI50,HOP-62,1.99 µM
same,GI50,HT29,1.99 µM
same,GI50,EKVX [11],2.51 µM
same,GI50,SR [12],3.16 µM
same,CC50,[7],49.1 µM
same,TGI (subpanel average),[7],7.99 µM
same,GI50,MOLT-4 [13],3.16 µM
same,GI50,[8],2.19 µM
same,CC50,[8],38.1 µM
same,TGI (subpanel average),[8],7.94 µM
same,GI50,[9],2.86 µM
same,CC50,[9],54.8 µM
same,TGI (subpanel average),[9],10.86 µM
same,GI50,HCT-15,2.51 µM
same,GI50,UACC-257 [14],1.99 µM
same,GI50,NCI-H322M,2.51 µM
same,GI50,SK-MEL-2 [15],1.99 µM
same,GI50,SNB-75,3.16 µM
same,GI50,SK-OV-3,2.51 µM
same,GI50,DU-145,3.16 µM
same,GI50,U251,1.99 µM
same,GI50,[10],2.33 µM
same,CC50,[10],27.8 µM
same,TGI (subpanel average),[10],7.64 µM
same,GI50,M14 [16],1.99 µM
same,GI50,SN12C,2.51 µM
